# Experimental data published in patent US9750744.
# Values joined by “and” are separate entries in the source; they are usually repeats but may differ in a detail not shown here. Equal values may be shown once. Read-outs that look alike come from different tables or passages of the source.
# Columns and labels:
# [1] = not given; remark: listed apart in the source
smiles,measurement,setting,value
Fc1ccc2c(c1)[C@H]1CCCN1c1ccn3ncc(c3n1)CNCCO2,"ring closure, isolated yield","from NCCOc1ccc(F)cc1[C@H]1CCCN1c1ccn2ncc(C=O)c2n1, amine bond, 13-membered ring, Me4NBH(OAc)3, DCM, 8.4 mM, 25.0 °C, 16.0 h",21.6%
O=C1NC[C@H](O)COc2ccc(F)cc2[C@H]2C[C@@H](O)CN2c2ccn3ncc1c3n2,"ring closure, isolated yield","from O=C(NC[C@H](O)CCl)c1cnn2ccc(N3CC(O)C[C@@H]3c3cc(F)ccc3O)nc12, ether bond, 14-membered ring, Cs2CO3, DMF, 21.6 mM, 85.0 °C, 0.5 h",16.2%
O=C1NC[C@H](O)COc2ccc(F)cc2C2CC(F)(F)CN2c2ccn3ncc1c3n2 (stereo partly shown),"ring closure, isolated yield","from O=C(NC[C@H](O)CCl)c1cnn2ccc(N3CC(F)(F)CC3c3cc(F)ccc3O)nc12, ether bond, 14-membered ring, Cs2CO3, DMF, 20.0 mM, 85.0 °C, 0.5 h",20% and 24%
O=C1NC[C@H](O)Cn2cc(F)cc(c2=O)[C@H]2CCCN2c2ccn3ncc1c3n2,"ring closure, yield of all isomers","[1]; from O=C(NC[C@H](O)CCl)c1cnn2ccc(N3CCC[C@@H]3c3cc(F)c[nH]c3=O)nc12, amine bond, Cs2CO3, DMF, […], 85.0 °C, 2.0 h",12%
O=C1NCCCn2cc(F)cc(c2=O)[C@H]2CCCN2c2ccn3ncc1c3n2,"ring closure, yield of all isomers","[1]; from NCCCn1cc(F)cc([C@H]2CCCN2c2ccn3ncc(C(=O)O)c3n2)c1=O, amide bond, EDCI/HOBt, DCM, 26.4 mM, 25.0 °C, 6.0 h",39%
O=C1OCCOc2ncc(F)cc2[C@H]2CCCN2c2ccn3ncc1c3n2,"ring closure, yield of all isomers","[1]; from O=C(OCCCl)c1cnn2ccc(N3CCC[C@@H]3c3cc(F)c[nH]c3=O)nc12, ether bond, Cs2CO3, DMF, 22.2 mM, 90.0 °C, 16.0 h",22%
O=C1NCCCOc2ncc(F)cc2[C@H]2CCCN2c2ccn3ncc1c3n2,"ring closure, isolated yield","from O=C(NCCCCl)c1cnn2ccc(N3CCC[C@@H]3c3cc(F)cnc3O)nc12, ether bond, 14-membered ring, Cs2CO3, DMF, […], 85.0 °C, 16.0 h",44%
COC(=O)c1cnn2ccc(N3CCC[C@@H]3c3cc(F)cnc3CCC(C)(C)NC(=O)OC(C)(C)C)nc12,"ring closure, isolated yield","the molecule shown is the open-chain precursor, amide bond, 13-membered ring, EDCI/HOBt/TEA, DMF, 39.4 mM, 45.0 °C, 3 steps",48.3%
O=C1NCCCCn2cc(F)cc(c2=O)[C@H]2CCCN2c2ccn3ncc1c3n2,"ring closure, isolated yield","other bond, 15-membered ring",6%
O=C1Nc2ncccc2COc2ncc(F)cc2[C@H]2CCCN2c2ccn3ncc1c3n2,"ring closure, isolated yield","from O=C(Nc1ncccc1CCl)c1cnn2ccc(N3CCC[C@@H]3c3cc(F)cnc3O)nc12, ether bond, 14-membered ring, Cs2CO3, DMF, 84.8 mM, 60.0 °C, 4.0 h, with chain assembly",2.2%
O=C1NCCCc2ncc(F)cc2[C@H]2CCCN2c2ccn3ncc1c3n2,"ring closure, isolated yield","from NCCCc1ncc(F)cc1[C@H]1CCCN1c1ccn2ncc(C(=O)O)c2n1, amide bond, 13-membered ring, HATU/DIEA, DMF, 8.4 mM, 3.0 h",39%
NCCCOc1ccc(F)cc1[C@H]1CCCN1c1ccn2ncc(CO)c2n1,"ring closure, isolated yield","the molecule shown is the open-chain precursor, amine bond, 14-membered ring, PS-PPh3/CCl4, DCM, 26.0 mM, 25.0 °C",57.5%
O=C1NCCCOc2ccc(F)cc2[C@H]2CCCN2c2ccn3ncc1c3n2,"ring closure, isolated yield","from CCOC(=O)c1cnn2ccc(N3CCC[C@@H]3c3cc(F)ccc3OCCCN)nc12, amide bond, 14-membered ring, DIEA, EtOH, 230.0 mM, 200.0 °C, 16.0 h",50%
